Laboratory results from ChEMBL document CHEMBL5046313, “Synthesis and Optimization of Nitroxide-Based Inhibitors of Ferroptotic Cell Death in Cancer Cells and Macrophages” (ACS Med Chem Lett, 2022).

Assays:
RAW264.7 = assay: Anti-ferroptotic activity against RSL-3 induced ferroptosis in mouse RAW264.7 cells assessed as cell activity measured after 24 hrs by Cell Titer-Glo luminescent assay; assay type: functional, cell-based; conditions: RAW264.7, 24 h
[1] = Lipophilicity, log P of the compound; assay type: physicochemical; conditions: octanol/water
[2] = Metabolic stability in mouse liver S9 fraction assessed as half life measured upto 60 mins in presence of NADPH by LC-MS/MS analysis; assay type: ADME, subcellular
HT-1080 = assay: Anti-ferroptotic activity against Erastin-induced ferroptosis in human HT-1080 cells assessed as cell activity measured after 24 hrs by Cell Titer-Glo luminescent assay; assay type: functional, cell-based; conditions: HT-1080, 24 h
[3] = Metabolic stability in human liver S9 fraction assessed as half life measured upto 60 mins in presence of NADPH by LC-MS/MS analysis; assay type: ADME, subcellular

Row | Compound | logP [1] | half-life [2] [min] | EC50 (HT-1080) [nM] | half-life [3] [min] | EC50 (RAW264.7) [nM]
1 | CC(C)C[C@@H](/C=C/C(C)(C)C(=O)NC1CC(C)(C)NC(C)(C)C1)NC(=O)OC(C)(C)C | 4 |  | 240 |  | 1150
2 | CC1(C)CC(NC(=O)C(/C=C/[C@@H](NC(=O)OC(C)(C)C)c2ccc(F)cc2)(Cc2ccc(F)cn2)Cc2ccc(F)cn2)CC(C)(C)N1 | 5.8 |  | > 2000 |  | 
3 | CC1(C)CC(NC(=O)C(/C=C/[C@@H](NC(=O)OC(C)(C)C)c2ccc(F)cc2)(Cc2ccc(F)cc2)Cc2ccc(F)cc2)CC(C)(C)N1 | 7.9 |  | 280 |  | 
4 | CC(C)C[C@@H](/C=C/C1(C(=O)NC2CC(C)(C)NC(C)(C)C2)CCCC1)NC(=O)OC(C)(C)C | 4.4 |  | 560 |  | 
5 | CC1(C)CC(NC(=O)C(C)(C)/C=C/[C@H](NC(=O)OC(C)(C)C)c2ccccc2)CC(C)(C)N1 | 4.2 |  | 330 |  | 
6 | CC1(C)CC(NC(=O)C(/C=C/[C@H](NC(=O)OC(C)(C)C)c2ccc(F)cc2)(Cc2ccc(F)cc2)Cc2ccc(F)cc2)CC(C)(C)N1 | 7.9 | 3 | 340 | 7 | 250
7 | CC(C)C[C@@H](/C=C/CC(=O)NC1CC(C)(C)NC(C)(C)C1)NC(=O)OC(C)(C)C | 2.8 | 9 | 3580 | 5 | 4090
8 | CCOC(=O)c1ccc(NC2CCCCC2)c(N)c1 | 2.8 |  | 70 |  | 40
9 | CC(C)C[C@@H](/C=C/C1(C(=O)NC2CC(C)(C)NC(C)(C)C2)CCOCC1)NC(=O)OC(C)(C)C | 3.1 |  | 2200 |  | 

More lines, in order of falling EC50 (HT-1080), values ahead:

Row | logP [1] | half-life [2] [min] | EC50 (HT-1080) [nM] | half-life [3] [min] | Compound | EC50 (RAW264.7) [nM]
10 | 2.9 |  | 1300 |  | CC1(C)CC(NC(=O)C/C=C/[C@H](NC(=O)OC(C)(C)C)c2ccccc2)CC(C)(C)N1 | 2760
11 | 3.5 |  | 800 |  | CC(C)C[C@@H](/C=C/C1(C(=O)NC2CC(C)(C)NC(C)(C)C2)CC1)NC(=O)OC(C)(C)C | 1130
12 | 6 |  | 430 |  | CC1(C)CC(NC(=O)C(/C=C/[C@@H](NC(=O)OC(C)(C)C)c2ccoc2)(Cc2ccc(F)cc2)Cc2ccc(F)cc2)CC(C)(C)N1 | 
13 | 7.6 |  | 330 |  | CC(C)C[C@@H](/C=C/C(Cc1ccc(F)cc1)(Cc1ccc(F)cc1)C(=O)NC1CC(C)(C)NC(C)(C)C1)NC(=O)OC(C)(C)C | 600
14 | 4 | 3 | 250 | 7 | CC(C)C[C@H](/C=C/C(C)(C)C(=O)NC1CC(C)(C)NC(C)(C)C1)NC(=O)OC(C)(C)C | 1170
15 | 6 |  | 240 |  | CC1(C)CC(NC(=O)C(/C=C/[C@H](NC(=O)OC(C)(C)C)c2ccoc2)(Cc2ccc(F)cc2)Cc2ccc(F)cc2)CC(C)(C)N1 | 
16 | 7.6 |  | 180 |  | CC(C)C[C@H](/C=C/C(Cc1ccc(F)cc1)(Cc1ccc(F)cc1)C(=O)NC1CC(C)(C)NC(C)(C)C1)NC(=O)OC(C)(C)C | 
17 | 7.2 | 3 | 130 | 7 | CC(C)C[C@@H](/C=C/C(Cc1ccccc1)(Cc1ccccc1)C(=O)NC1CC(C)(C)NC(C)(C)C1)NC(=O)OC(C)(C)C | 370
